# Assay results published in ChEMBL document CHEMBL1151289, “Biosynthesis of ganefromycin: results from blocked mutants and bioconversion experiments” (1998).
# Test system: Priestia megaterium
# Test: Antimicrobial activity against Bacillus megaterium
# Format: functional
row,SMILES,MIC [µg/mL]
1,C/C=C\C=C\[C@@H]1O[C@](O)([C@H](C)C(=O)NC/C=C/C=C(\C)C(O)C(C)C2CC(O)C(/C=C/C=C/C=C/C(=O)O)O2)C[C@H](O)C1(C)C (stereo not given in full),> 100
2,C/C=C\C=C\[C@@H]1O[C@](O)([C@H](CO[C@H]2C[C@H](OC)[C@H](O[C@@H]3C[C@@H](OC)[C@@H](O[C@H]4C[C@H](OC)[C@H](O)[C@H](C)O4)[C@H](C)O3)[C@H](C)O2)C(=O)NC/C=C/C=C(\C)C(OC)C(C)C(=O)CC(O)C/C=C/C=C/C=C/C(=O)O)C[C@H](O)C1(C)C (stereo not given in full),3.1
3,C/C=C\C=C\[C@@H]1O[C@](O)([C@H](CO)C(=O)NC/C=C/C=C(\C)C(OC)C(C)C2CC(O)C(/C=C/C=C/C=C/C(=O)O)O2)[C@H](O)[C@H](O)C1(C)C (stereo not given in full),50
4,C/C=C\C=C\[C@@H]1O[C@](O)([C@H](CO[C@H]2C[C@H](OC)[C@H](O[C@@H]3C[C@@H](OC)[C@@H](O[C@H]4C[C@H](OC)[C@H](O)[C@H](C)O4)[C@H](C)O3)[C@H](C)O2)C(=O)NC/C=C/C=C(\C)C(OC)C(C)C2CC(O)C(/C=C/C=C/C=C/C(=O)O)O2)C[C@H](O)C1(C)C (stereo not given in full),6.3
5,C/C=C\C=C\[C@@H]1O[C@](O)([C@H](C)C(=O)NC/C=C/C=C(\C)C(OC)C(C)C2CC(O)C(/C=C/C=C/C=C/C(=O)O)O2)[C@H](OC(=O)Cc2ccccc2)[C@H](O)C1(C)C (stereo not given in full),12.5
6,C/C=C\C=C\[C@@H]1O[C@](O)([C@H](CO[C@H]2C[C@H](O)[C@H](O)[C@H](C)O2)C(=O)NC/C=C/C=C(\C)C(OC)C(C)C2CC(O)C(/C=C/C=C/C=C/C(=O)O)O2)[C@H](O)[C@H](OC(=O)Cc2ccccc2)C1(C)C (stereo not given in full),50
7,C/C=C\C=C\[C@@H]1O[C@](O)([C@H](CO[C@H]2C[C@H](O)[C@H](O)[C@H](C)O2)C(=O)NC/C=C/C=C(\C)C(OC)C(C)C2CC(O)C(/C=C/C=C/C=C/C(=O)O)O2)[C@H](O)[C@H](O)C1(C)C (stereo not given in full),100
8,C/C=C\C=C\[C@@H]1O[C@](O)([C@@H](CO[C@H]2C[C@H](OC)[C@H](O[C@@H]3C[C@@H](OC)[C@@H](O[C@H]4C[C@H](OC)[C@H](O)[C@H](C)O4)[C@H](C)O3)[C@H](C)O2)C(=O)NC/C=C/C=C(\C)C(OC)C(C)C2CC(O)C(/C=C/C=C/C=C/C(=O)O)O2)C[C@H](O)C1(C)C (stereo not given in full),6.3
9,C/C=C\C=C\[C@@H]1O[C@](O)([C@H](C)C(=O)NC/C=C/C=C(\C)C(O)C(C)C2CC(O)C(/C=C/C=C/C=C/C(=O)O)O2)[C@H](O)[C@H](O)C1(C)C (stereo not given in full),100
10,C/C=C\C=C\[C@@H]1O[C@](O)([C@H](CO[C@H]2C[C@H](OC)[C@H](O[C@@H]3C[C@@H](OC)[C@@H](O[C@H]4C[C@H](OC)[C@H](O)[C@H](C)O4)[C@H](C)O3)[C@H](C)O2)C(=O)NC/C=C/C=C(\C)C(OC)C(C)C2CC(O)C(/C=C/C=C/C=C/C(=O)O)O2)[C@H](OC(=O)Cc2ccccc2)[C@H](O)C1(C)C (stereo not given in full),0.4
11,C/C=C\C=C\[C@@H]1O[C@](O)([C@H](C)C(=O)NC/C=C/C=C(\C)C(OC)C(C)C2CC(O)C(/C=C/C=C/C=C/C(=O)O)O2)[C@H](O)[C@H](O)C1(C)C (stereo not given in full),6.3
12,C/C=C\C=C\[C@@H]1O[C@](O)([C@@H](CO[C@@H]2O[C@@H](C)[C@@H](C)[C@@H](O[C@@H]3C[C@@H](OC)[C@@H](O)[C@H](C)O3)[C@H]2OC)C(=O)NC/C=C/C=C(\C)C(OC)C(C)C2CC(O)C(/C=C/C=C/C=C/C(=O)O)O2)C[C@H](O)C1(C)C (stereo not given in full),12.6
13,C/C=C\C=C\[C@@H]1O[C@](O)([C@H](CO[C@H]2C[C@H](O)[C@H](O)[C@H](C)O2)C(=O)NC/C=C/C=C(\C)C(OC)C(C)C2CC(O)C(/C=C/C=C/C=C/C(=O)O)O2)[C@H](OC(=O)Cc2ccccc2)[C@H](O)C1(C)C (stereo not given in full),12.5
14,C/C=C\C=C\[C@@H]1O[C@](O)([C@@H](C)C(=O)NC/C=C/C=C(\C)C(O)C(C)C2CC(O)C(/C=C/C=C/C=C/C(=O)O)O2)C[C@H](O)C1(C)C (stereo not given in full),> 100
15,C/C=C\C=C\[C@@H]1O[C@](O)([C@H](CO[C@@H]2O[C@@H](C)[C@@H](C)[C@@H](O[C@@H]3C[C@@H](OC)[C@@H](O)[C@H](C)O3)[C@H]2OC)C(=O)NC/C=C/C=C(\C)C(OC)C(C)C2CC(O)C(/C=C/C=C/C=C/C(=O)O)O2)C[C@H](O)C1(C)C (stereo not given in full),12.6
